# Test results taken from US20180273534A1, “PYRAZOLOPYRIDINE SULFONAMIDES AS NEMATICIDES” (BAYER CROPSCIENCE AKTIENGESELLSCHAFT, priority 2014, published 2018).
# Several values for one entry are separate records, joined by “and”; a condition that tells them apart may be missing. Equal entries are not always repeated.
# Test system: Meloidogyne incognita
# Assay: Meloidogyne incognita test (sand, salad seedlings, gall formation)
# Assay type: in vivo
# Conditions: application rate 20 ppm, after 14 days, 100% = no galls, 0% = galls equal to untreated control
# Protocol: Meloidogyne Incognita—Test
# Solvent: 125.0 parts by weight of acetone
# To produce a suitable preparation of active compound, 1 part by weight of active compound is mixed with the stated amount of solvent, and the concentrate is diluted with water to the desired concentration.
# Vessels are filled with sand, a solution of the active ingredient, a suspension containing eggs and larvae of the southern root-knot nematode (Meloidogyne incognita) and salad seeds. The salad seeds germinate and the seedlings grow. Galls develop in the roots.
# After 14 days the nematicidal activity is determined on the basis of the percentage of gall formation. 100% means no galls were found and 0% means the number of galls found on the roots of the treated plants was equal to that in untreated control plants.
row,Compound,nematicidal activity on the basis of the percentage of gall formation
1,"O=C(NS(=O)(=O)c1ccccc1Cl)c1cc2cc(C(F)(F)F)ccn2n1 [Example I-1, N-[(2-chlorophenyl)sulfonyl]-5-(trifluoromethyl)pyrazolo[1,5-a]pyridine-2-carboxamide]",100%
2,O=C(NS(=O)(=O)c1ncc(C(F)(F)F)cc1Cl)c1cc2c(Cl)cc(C(F)(F)F)cn2n1 [Example I-2],90%
3,COc1ccc(Cl)c(S(=O)(=O)NC(=O)c2cc3c(Cl)cc(C(F)(F)F)cn3n2)c1 [Example I-3],100% and 90%
4,O=C(NS(=O)(=O)c1ccccc1C(F)(F)F)c1cc2c(Cl)cc(C(F)(F)F)cn2n1 [Example I-4],90%
5,O=C(NS(=O)(=O)c1ccccc1OC(F)(F)F)c1cc2c(Cl)cc(C(F)(F)F)cn2n1 [Example I-5],90%
6,COc1ccccc1S(=O)(=O)NC(=O)c1cc2c(Cl)cc(C(F)(F)F)cn2n1 [Example I-8],90%
7,O=C(NS(=O)(=O)c1ccc(Cl)cc1)c1cc2c(Cl)cc(C(F)(F)F)cn2n1 [Example I-9],100% and 90%
8,Cc1ccccc1S(=O)(=O)NC(=O)c1cc2c(Cl)cc(C(F)(F)F)cn2n1 [Example I-10],90%
9,O=C(NS(=O)(=O)c1cccc(Cl)c1)c1cc2c(Cl)cc(C(F)(F)F)cn2n1 [Example I-12],90%
10,O=C(NS(=O)(=O)c1cc2c(cc1Cl)OC(F)(F)O2)c1cc2c(Cl)cc(C(F)(F)F)cn2n1 [Example I-14],90%
11,CCS(=O)(=O)NC(=O)c1cc2c(Cl)cc(C(F)(F)F)cn2n1 [Example I-16],100%
12,O=C(NS(=O)(=O)C1CC1)c1cc2c(Cl)cc(C(F)(F)F)cn2n1 [Example I-17],100%
13,O=C(NS(=O)(=O)c1c(Cl)cccc1Cl)c1cc2c(Cl)cc(C(F)(F)F)cn2n1 [Example I-18],100%
14,O=C(NS(=O)(=O)c1ccccc1Cl)c1cc2cc(C(F)(F)F)cc(Cl)n2n1 [Example I-19],100%
15,O=C(NS(=O)(=O)c1ccc(Cl)cc1)c1cc2cc(C(F)(F)F)cc(Cl)n2n1 [Example I-20],90%
16,O=C(NS(=O)(=O)c1c(Cl)cccc1Cl)c1cc2cc(C(F)(F)F)cc(Cl)n2n1 [Example I-21],100%
17,O=C(NS(=O)(=O)c1cc(Cl)ccc1Cl)c1cc2cc(C(F)(F)F)cc(Cl)n2n1 [Example I-22],100%
18,COc1ccc(Cl)c(S(=O)(=O)NC(=O)c2cc3cc(C(F)(F)F)cc(Cl)n3n2)c1 [Example I-23],100%
19,O=C(NS(=O)(=O)c1c(Cl)cccc1Cl)c1cc2cc(C(F)(F)F)ccn2n1 [Example I-25],100%
20,O=C(NS(=O)(=O)c1cc(Cl)ccc1Cl)c1cc2cc(C(F)(F)F)ccn2n1 [Example I-26],100%
21,COc1ccc(Cl)c(S(=O)(=O)NC(=O)c2cc3cc(C(F)(F)F)ccn3n2)c1 [Example I-27],100%

row,Compound,nematicidal activity on the basis of the percentage of gall formation
1,O=C(NS(=O)(=O)C1CC1)c1cc2cc(C(F)(F)F)ccn2n1 [Example I-29],90%
2,O=C(NS(=O)(=O)c1cccc(Cl)c1)c1cc2cc(C(F)(F)F)cc(Cl)n2n1 [Example I-30],100% and 90%
3,CCS(=O)(=O)NC(=O)c1cc2cc(C(F)(F)F)cc(Cl)n2n1 [Example I-32],90%
4,O=C(NS(=O)(=O)c1cc(C(F)(F)F)ccc1Cl)c1cc2cc(C(F)(F)F)ccn2n1 [Example I-33],100%
5,CCOc1ccc(Cl)c(S(=O)(=O)NC(=O)c2cc3cc(C(F)(F)F)ccn3n2)c1 [Example I-34],100%
6,CCCOc1ccc(Cl)c(S(=O)(=O)NC(=O)c2cc3cc(C(F)(F)F)ccn3n2)c1 [Example I-35],100%
7,CCc1ccc(Cl)c(S(=O)(=O)NC(=O)c2cc3cc(C(F)(F)F)ccn3n2)c1 [Example I-36],100%
8,COc1ccc(Br)c(S(=O)(=O)NC(=O)c2cc3cc(C(F)(F)F)ccn3n2)c1 [Example I-37],100%
9,COc1ccc(F)c(S(=O)(=O)NC(=O)c2cc3cc(C(F)(F)F)ccn3n2)c1 [Example I-38],100%
10,CSc1cccc(Cl)c1S(=O)(=O)NC(=O)c1cc2cc(C(F)(F)F)ccn2n1 [Example I-39],100%
11,CCSc1cccc(Cl)c1S(=O)(=O)NC(=O)c1cc2cc(C(F)(F)F)ccn2n1 [Example I-40],100%
12,CC(C)Sc1cccc(Cl)c1S(=O)(=O)NC(=O)c1cc2cc(C(F)(F)F)ccn2n1 [Example I-41],100%
13,CC(C)Nc1cccc(F)c1S(=O)(=O)NC(=O)c1cc2cc(C(F)(F)F)ccn2n1 [Example I-42],100%
14,O=C(NS(=O)(=O)c1c(F)cccc1Cl)c1cc2cc(C(F)(F)F)ccn2n1 [Example I-43],100%
15,CCOc1ccc(Cl)c(S(=O)(=O)NC(=O)c2cc3cc(C(F)(F)F)cc(Cl)n3n2)c1 [Example I-44],90%
16,CCCOc1ccc(Cl)c(S(=O)(=O)NC(=O)c2cc3cc(C(F)(F)F)cc(Cl)n3n2)c1 [Example I-45],100%
17,COc1ccc(Cl)c(S(=O)(=O)NC(=O)c2cc3cc(Cl)cc(Cl)n3n2)c1 [Example I-49],90%
18,O=C(NS(=O)(=O)c1cc(Cl)ccc1Cl)c1cc2ccc(C(F)(F)F)cn2n1 [Example I-51],90%
19,O=C(NS(=O)(=O)c1c(Cl)cccc1Cl)c1cc2ccc(C(F)(F)F)cn2n1 [Example I-52],90%
20,CCOc1ccc(Cl)c(S(=O)(=O)NC(=O)c2cc3cc(Cl)cc(Cl)n3n2)c1 [Example I-57],100%
21,CCCOc1ccc(Cl)c(S(=O)(=O)NC(=O)c2cc3cc(Cl)cc(Cl)n3n2)c1 [Example I-58],100%

row,Compound,nematicidal activity on the basis of the percentage of gall formation
1,CCc1ccc(Cl)c(S(=O)(=O)NC(=O)c2cc3cc(Cl)cc(Cl)n3n2)c1 [Example I-59],100%
2,CSc1ccc(Cl)c(S(=O)(=O)NC(=O)c2cc3cc(Cl)cc(Cl)n3n2)c1 [Example I-60],100%
3,CCc1ccc(Cl)c(S(=O)(=O)NC(=O)c2cc3cc(C(F)(F)F)cc(Cl)n3n2)c1 [Example I-62],100%
4,CCSc1cccc(Cl)c1S(=O)(=O)NC(=O)c1cc2cc(C(F)(F)F)cc(Cl)n2n1 [Example I-63],100%
5,CC(C)Sc1cccc(Cl)c1S(=O)(=O)NC(=O)c1cc2cc(C(F)(F)F)cc(Cl)n2n1 [Example I-64],100%
6,O=C(NS(=O)(=O)c1c(F)cccc1Cl)c1cc2cc(C(F)(F)F)cc(Cl)n2n1 [Example I-65],100%
7,CC(C)Nc1cccc(F)c1S(=O)(=O)NC(=O)c1cc2cc(Cl)cc(Cl)n2n1 [Example I-66],90%
8,O=C(NS(=O)(=O)c1c(F)cccc1Cl)c1cc2cc(Cl)cc(Cl)n2n1 [Example I-67],90%
9,COc1ccc(F)c(S(=O)(=O)NC(=O)c2cc3cc(Cl)cc(Cl)n3n2)c1 [Example I-68],100%
10,COc1ccc(Br)c(S(=O)(=O)NC(=O)c2cc3cc(Cl)cc(Cl)n3n2)c1 [Example I-69],100%
11,COc1ccc(Br)c(S(=O)(=O)NC(=O)c2cc3cc(C(F)(F)F)cc(Cl)n3n2)c1 [Example I-70],100%
12,CSc1cccc(Cl)c1S(=O)(=O)NC(=O)c1cc2cc(C(F)(F)F)cc(Cl)n2n1 [Example I-71],100%
13,O=C(NS(=O)(=O)c1cc(C(F)(F)F)ccc1Cl)c1cc2cc(C(F)(F)F)cc(Cl)n2n1 [Example I-72],100%
14,O=C(NS(=O)(=O)c1cc(C(F)(F)F)ccc1Br)c1cc2cc(C(F)(F)F)ccn2n1 [Example I-73],100%
15,COc1ccc(F)c(S(=O)(=O)NC(=O)c2cc3cc(C(F)(F)F)cc(Cl)n3n2)c1 [Example I-74],100%
16,CCc1ccc(C)c(S(=O)(=O)NC(=O)c2cc3cc(Cl)cc(Cl)n3n2)c1 [Example I-75],100%
17,CSc1cccc(Cl)c1S(=O)(=O)NC(=O)c1cc2cc(Cl)cc(Cl)n2n1 [Example I-76],90%
18,CCc1ccc(C)c(S(=O)(=O)NC(=O)c2cc3cc(C(F)(F)F)cc(Cl)n3n2)c1 [Example I-77],100%
19,CCc1ccc(C)c(S(=O)(=O)NC(=O)c2cc3cc(C(F)(F)F)ccn3n2)c1 [Example I-78],100%
